Results published in ChEMBL document CHEMBL1201862, “PubChem BioAssay data set” (2004).
The source made the active and inactive calls.

Key:
[1] = molecular target: Mitogen-activated protein kinase 10 (Homo sapiens, UniProt P53779); assay: Dose response biochemical screening assay for inhibitors of c-Jun N-Terminal Kinase 3 (JNK3). [Related pubchem assays: 746 ]
[2] = IGROV1 ovarian cancer cell cytotoxicity, dose response, PAX8 inhibitor project, plate reader, dry powder samples (AID 743043); format: functional, cell-based; details: IGROV-1
Paired box protein Pax-8 = Paired box protein Pax-8 (Homo sapiens, UniProt Q06710); assay: inhibitors of PAX8-driven TPO luciferase reporter, dose response, RMG-I cells, cherry-pick (AID 687027); format: functional, cell-based;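 note: luciferase reporter driven by Pax8 target thyroperoxidase promoter measured by SteadyGlo luminescence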
[3] = cytotoxicity in OVCAR8 ovarian cancer cells, dose response, PAX8 project, cell-based, plate reader, dry powder samples (AID 743197); format: functional; details: OVCAR-8
[4] = NIH:OVCAR-3 ovarian cancer cell cytotoxicity, dose response, PAX8 inhibitor project, plate reader, dry powder samples (AID 743044); format: functional, cell-based
[5] = P. falciparum Dd2 growth inhibitors, dose response, SYBR Green, cherry-picked samples (AID 1159567); format: functional, cell-based
[6] = P. falciparum Dd2 growth inhibitors, dose response, SYBR Green, dry powder samples (AID 1159566); format: functional, cell-based;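 note: potency for growth inhibition with lower SYBR green DNA signal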
[7] = P. falciparum ATP4 D1247Y mutant growth inhibitors, dose response, NITD609-resistant line, SYBR Green, dry powder (AID 1159571); format: functional, cell-based;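 note: parasites synchronized at ring stage by sorbitol before testing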
[8] = P. falciparum 3D7-ScDHODH growth inhibitors, dose response, SYBR Green, dry powder samples (AID 1159570); format: functional, cell-based;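 note: parasite growth measured after 72 hours of compound exposure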
Cytochrome P450 2D6 = Cytochrome P450 2D6 (Homo sapiens, UniProt P10635);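 note: CYP2D6 member of a cytochrome P450 panel assay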
Cytochrome P450 2C9 = Cytochrome P450 2C9 (Homo sapiens, UniProt P11712)
Vero [9] = assay: cells; format: functional, cell-based; details: Chlorocebus sabaeus
Vero [10] = assay: cells; format: functional; details: Chlorocebus sabaeus
[11] = THP-1 cell cytotoxicity, dose response, cytotoxicity control for non-replicating M. tuberculosis project (AID 489025); format: functional
cells [12] = format: functional
[13] = molecular target: T1, Voltage-gated N-type calcium channel alpha-1B subunit/Amyloid beta A4 precursor protein-binding family A member 1 (Homo sapiens, UniProt Q00975+Q02410); format: protein assay
[14] = molecular target: T2, Histone-lysine N-methyltransferase NSD2 (Homo sapiens, UniProt O96028); format: biochemical
T2 sequence (O96028 whole entry): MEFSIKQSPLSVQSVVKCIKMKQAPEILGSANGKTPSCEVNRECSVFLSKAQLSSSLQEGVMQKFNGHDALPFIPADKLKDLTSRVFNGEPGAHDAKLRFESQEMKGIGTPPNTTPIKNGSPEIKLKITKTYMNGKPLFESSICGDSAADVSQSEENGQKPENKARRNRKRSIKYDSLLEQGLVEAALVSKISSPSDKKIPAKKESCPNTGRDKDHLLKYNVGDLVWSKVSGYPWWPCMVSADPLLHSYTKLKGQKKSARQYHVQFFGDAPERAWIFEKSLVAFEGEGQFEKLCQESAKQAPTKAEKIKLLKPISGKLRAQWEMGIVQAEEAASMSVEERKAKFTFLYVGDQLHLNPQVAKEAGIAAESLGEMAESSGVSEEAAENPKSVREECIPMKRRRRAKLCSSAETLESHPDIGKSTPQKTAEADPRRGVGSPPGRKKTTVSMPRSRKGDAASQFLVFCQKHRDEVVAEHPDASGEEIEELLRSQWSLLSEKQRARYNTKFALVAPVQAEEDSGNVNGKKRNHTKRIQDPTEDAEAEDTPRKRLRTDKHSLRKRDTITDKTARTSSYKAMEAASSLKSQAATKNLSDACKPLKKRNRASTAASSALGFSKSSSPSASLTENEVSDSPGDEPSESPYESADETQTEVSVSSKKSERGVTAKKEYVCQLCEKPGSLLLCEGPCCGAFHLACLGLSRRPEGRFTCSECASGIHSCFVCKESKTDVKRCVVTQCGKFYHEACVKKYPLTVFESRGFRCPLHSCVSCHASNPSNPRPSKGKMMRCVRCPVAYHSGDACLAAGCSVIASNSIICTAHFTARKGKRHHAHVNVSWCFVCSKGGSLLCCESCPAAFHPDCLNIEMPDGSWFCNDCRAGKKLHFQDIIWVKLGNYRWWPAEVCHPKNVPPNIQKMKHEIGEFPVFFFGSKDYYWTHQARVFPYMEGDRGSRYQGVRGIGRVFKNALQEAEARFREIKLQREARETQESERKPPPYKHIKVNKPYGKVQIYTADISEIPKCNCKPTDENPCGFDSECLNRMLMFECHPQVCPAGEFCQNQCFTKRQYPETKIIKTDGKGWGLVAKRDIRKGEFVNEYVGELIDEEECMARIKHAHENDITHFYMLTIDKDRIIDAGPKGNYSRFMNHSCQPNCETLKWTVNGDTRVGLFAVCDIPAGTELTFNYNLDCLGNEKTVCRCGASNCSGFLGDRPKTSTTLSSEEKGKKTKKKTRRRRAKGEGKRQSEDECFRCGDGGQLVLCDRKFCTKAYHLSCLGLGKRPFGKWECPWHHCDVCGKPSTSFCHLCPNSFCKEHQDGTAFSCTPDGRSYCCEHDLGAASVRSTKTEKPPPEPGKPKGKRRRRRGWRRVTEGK

[15] = molecular target: T1, Voltage-gated N-type calcium channel alpha-1B subunit/Amyloid beta A4 precursor protein-binding family A member 1; format: protein assay; remark: listed apart in the source
Genome polyprotein = Genome polyprotein (dengue virus type 2, UniProt P29990); assay: Dengue-2 NS5 methyltransferase inhibitors, primary screen, biochemical, confirmation dose response (AID 588689); format: functional
[16] = inhibitors of intracellular T. cruzi replication, confirmation, NIH3T3 host cells, beta-gal luminescence (AID 2044); format: functional, cell-based;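 note: intracellular parasites grown in NIH/3T3 mouse fibroblasts as host cells; luminescent beta-galactosidase reporter signal from transgenic T. cruzi replicating inside host cells; inhibitors lower the luminescence signal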
[17] = cytotoxicity toward NIH3T3 fibroblasts, dose response, counter-screen, cell-based, ATP luminescence, mouse fibroblasts (AID 2010); format: functional;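 note: cells exposed to compound for about 90 hours before reading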
[18] = molecular target: Eukaryotic translation initiation factor 4E (Mus musculus, UniProt P63073); assay: eIF4E–eIF4G protein interaction inhibitors, dose response, biochemical, TR-FRET (AID 855); format: functional;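 note: potency for disrupting eIF4E binding to eIF4GI seen as loss of FRET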
[19] = inhibitors of firefly luciferase expression or activity, dose response, H4 neuroglioma cells, luminescence (AID 1990); format: functional, cell-based
cells [20] = format: functional, cell-based
[21] = inhibitors of SNCA 5'UTR-driven reporter translation, confirmation, H4 neuroglioma cells, luminescence (AID 1988); format: functional, cell-based
Nonstructural protein 1 = Nonstructural protein 1 (Influenza A virus, UniProt Q194T2); format: functional, Influenza A virus (A/California/07/2009(H1N1))
[22] = Luminescence Cell-Based Dose Response HTS to Identify Inhibitors of 5'UTR Stem-Loop Driven Prion Protein mRNA Translation in H4 Neuroglioblastoma Cells. [Related pubchem assays: 1827 (Project Summary), 1813 (Primary HTS)]; format: functional
cells [23] = format: functional, cell-based; remark: listed apart in the source
[24] = molecular target: T3, Short transient receptor potential channel 4 (Mus musculus, UniProt Q9QUQ5); assay: mouse TRPC4 channel inhibitors, dose response, cell-based, HEK293 TRPC4/mu-opioid, Fluo-4 calcium (AID 434942); format: functional;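 note: potency of inhibitors blocking the TRPC4 calcium response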
T3 sequence (Q9QUQ5 whole entry): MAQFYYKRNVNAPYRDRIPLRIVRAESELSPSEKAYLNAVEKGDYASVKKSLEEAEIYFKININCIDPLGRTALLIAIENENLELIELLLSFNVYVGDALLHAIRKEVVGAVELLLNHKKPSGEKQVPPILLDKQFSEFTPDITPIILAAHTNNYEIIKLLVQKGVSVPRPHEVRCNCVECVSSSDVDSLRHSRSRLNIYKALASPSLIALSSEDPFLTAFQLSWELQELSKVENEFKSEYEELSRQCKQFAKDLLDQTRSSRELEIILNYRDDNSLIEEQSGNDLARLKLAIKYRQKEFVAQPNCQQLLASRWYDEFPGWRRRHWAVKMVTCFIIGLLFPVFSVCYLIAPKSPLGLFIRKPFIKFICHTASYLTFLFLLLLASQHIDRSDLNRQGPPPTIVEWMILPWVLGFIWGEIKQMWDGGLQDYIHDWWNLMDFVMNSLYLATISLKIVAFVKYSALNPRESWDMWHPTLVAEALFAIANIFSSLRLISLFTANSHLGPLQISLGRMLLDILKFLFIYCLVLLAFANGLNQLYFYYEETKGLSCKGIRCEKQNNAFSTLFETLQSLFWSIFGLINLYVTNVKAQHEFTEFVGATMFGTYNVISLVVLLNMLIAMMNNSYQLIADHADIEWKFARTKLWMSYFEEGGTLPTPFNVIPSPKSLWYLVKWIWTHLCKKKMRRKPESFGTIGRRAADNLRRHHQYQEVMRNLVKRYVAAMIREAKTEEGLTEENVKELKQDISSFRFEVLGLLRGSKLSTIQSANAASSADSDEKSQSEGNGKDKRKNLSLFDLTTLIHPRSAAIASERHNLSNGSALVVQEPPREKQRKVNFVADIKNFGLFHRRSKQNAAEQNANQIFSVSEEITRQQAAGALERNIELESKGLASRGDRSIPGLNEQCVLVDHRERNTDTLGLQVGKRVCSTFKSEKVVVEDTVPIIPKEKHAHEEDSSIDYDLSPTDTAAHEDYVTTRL

T1 sequence (Q00975 whole entry): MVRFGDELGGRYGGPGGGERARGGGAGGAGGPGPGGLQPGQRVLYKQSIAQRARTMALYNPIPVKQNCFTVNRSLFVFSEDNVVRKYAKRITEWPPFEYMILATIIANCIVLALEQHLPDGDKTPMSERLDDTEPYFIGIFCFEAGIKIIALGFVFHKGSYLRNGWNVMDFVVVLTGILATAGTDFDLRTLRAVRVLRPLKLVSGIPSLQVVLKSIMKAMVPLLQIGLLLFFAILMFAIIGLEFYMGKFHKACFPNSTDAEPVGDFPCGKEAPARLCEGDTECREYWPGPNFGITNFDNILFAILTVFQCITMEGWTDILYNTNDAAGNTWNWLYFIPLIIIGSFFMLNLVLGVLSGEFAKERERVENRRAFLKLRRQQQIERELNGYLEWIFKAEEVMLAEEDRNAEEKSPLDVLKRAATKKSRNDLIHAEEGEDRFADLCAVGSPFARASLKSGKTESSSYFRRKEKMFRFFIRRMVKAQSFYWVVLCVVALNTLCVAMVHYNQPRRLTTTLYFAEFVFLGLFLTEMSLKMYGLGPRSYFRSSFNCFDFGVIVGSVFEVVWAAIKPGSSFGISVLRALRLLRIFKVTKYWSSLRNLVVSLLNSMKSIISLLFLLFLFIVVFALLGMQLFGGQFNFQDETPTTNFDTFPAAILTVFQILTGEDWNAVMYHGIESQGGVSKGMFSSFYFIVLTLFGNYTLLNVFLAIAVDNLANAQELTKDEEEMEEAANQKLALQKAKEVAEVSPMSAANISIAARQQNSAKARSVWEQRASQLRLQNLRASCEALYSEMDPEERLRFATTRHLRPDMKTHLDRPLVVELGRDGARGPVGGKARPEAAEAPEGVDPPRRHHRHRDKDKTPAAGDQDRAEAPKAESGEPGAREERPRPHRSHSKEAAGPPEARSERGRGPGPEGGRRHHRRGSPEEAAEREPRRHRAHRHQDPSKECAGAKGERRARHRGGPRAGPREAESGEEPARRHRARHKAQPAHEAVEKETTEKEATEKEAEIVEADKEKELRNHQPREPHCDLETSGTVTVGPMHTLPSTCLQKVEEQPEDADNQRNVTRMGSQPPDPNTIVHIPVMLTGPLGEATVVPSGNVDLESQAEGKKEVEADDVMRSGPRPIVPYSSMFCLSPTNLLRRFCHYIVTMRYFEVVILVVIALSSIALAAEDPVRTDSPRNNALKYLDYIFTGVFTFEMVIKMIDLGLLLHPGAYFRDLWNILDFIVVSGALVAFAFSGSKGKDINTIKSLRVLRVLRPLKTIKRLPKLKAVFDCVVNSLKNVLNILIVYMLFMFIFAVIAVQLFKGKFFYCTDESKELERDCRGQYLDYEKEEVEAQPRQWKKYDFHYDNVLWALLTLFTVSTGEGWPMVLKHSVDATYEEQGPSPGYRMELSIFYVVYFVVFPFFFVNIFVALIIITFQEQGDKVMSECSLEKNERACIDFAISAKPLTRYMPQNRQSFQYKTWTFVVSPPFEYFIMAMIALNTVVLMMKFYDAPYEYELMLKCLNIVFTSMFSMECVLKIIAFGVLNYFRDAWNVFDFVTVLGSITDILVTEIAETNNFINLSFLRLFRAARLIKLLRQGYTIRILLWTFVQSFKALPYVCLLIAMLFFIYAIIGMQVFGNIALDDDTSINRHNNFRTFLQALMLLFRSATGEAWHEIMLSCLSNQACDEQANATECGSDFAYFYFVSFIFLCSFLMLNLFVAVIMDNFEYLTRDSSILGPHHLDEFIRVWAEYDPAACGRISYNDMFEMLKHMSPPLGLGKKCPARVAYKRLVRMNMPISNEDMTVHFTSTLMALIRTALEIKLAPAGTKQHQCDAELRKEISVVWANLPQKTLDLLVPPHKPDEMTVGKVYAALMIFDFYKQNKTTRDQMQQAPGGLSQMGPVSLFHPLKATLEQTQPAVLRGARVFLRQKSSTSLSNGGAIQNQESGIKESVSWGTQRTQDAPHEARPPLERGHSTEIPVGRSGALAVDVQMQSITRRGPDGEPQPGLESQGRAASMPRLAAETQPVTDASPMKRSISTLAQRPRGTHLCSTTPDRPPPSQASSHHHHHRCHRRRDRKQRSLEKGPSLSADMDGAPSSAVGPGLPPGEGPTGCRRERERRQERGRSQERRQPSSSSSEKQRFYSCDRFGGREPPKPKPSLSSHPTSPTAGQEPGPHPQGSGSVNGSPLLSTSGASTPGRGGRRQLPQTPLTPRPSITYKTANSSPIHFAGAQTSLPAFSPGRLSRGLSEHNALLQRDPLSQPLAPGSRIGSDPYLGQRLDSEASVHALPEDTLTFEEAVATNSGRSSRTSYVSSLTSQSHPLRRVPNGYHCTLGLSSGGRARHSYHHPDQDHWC
T1 sequence (Q02410 whole entry): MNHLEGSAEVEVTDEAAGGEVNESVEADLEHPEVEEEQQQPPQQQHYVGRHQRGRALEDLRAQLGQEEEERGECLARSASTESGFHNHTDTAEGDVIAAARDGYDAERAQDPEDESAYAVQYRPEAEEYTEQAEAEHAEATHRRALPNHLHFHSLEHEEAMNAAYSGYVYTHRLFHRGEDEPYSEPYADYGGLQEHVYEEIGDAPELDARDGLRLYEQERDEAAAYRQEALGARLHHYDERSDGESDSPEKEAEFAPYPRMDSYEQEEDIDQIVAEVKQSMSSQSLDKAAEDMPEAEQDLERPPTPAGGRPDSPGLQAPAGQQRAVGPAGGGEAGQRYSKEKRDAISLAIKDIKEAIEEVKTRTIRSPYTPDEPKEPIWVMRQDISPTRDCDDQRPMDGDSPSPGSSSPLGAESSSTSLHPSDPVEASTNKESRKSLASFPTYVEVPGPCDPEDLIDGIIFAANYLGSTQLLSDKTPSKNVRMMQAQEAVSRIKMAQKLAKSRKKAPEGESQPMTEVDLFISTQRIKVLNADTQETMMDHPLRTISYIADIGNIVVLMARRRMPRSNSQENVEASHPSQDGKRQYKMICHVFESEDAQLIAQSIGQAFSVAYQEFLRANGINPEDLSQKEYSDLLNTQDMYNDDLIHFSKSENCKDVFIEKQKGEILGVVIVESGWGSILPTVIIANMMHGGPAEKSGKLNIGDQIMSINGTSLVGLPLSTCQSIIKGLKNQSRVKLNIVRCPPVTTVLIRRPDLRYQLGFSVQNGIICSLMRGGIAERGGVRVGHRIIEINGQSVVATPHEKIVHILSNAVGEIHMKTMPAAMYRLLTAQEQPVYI
Paired box protein Pax-8, sequence (Q06710 whole entry): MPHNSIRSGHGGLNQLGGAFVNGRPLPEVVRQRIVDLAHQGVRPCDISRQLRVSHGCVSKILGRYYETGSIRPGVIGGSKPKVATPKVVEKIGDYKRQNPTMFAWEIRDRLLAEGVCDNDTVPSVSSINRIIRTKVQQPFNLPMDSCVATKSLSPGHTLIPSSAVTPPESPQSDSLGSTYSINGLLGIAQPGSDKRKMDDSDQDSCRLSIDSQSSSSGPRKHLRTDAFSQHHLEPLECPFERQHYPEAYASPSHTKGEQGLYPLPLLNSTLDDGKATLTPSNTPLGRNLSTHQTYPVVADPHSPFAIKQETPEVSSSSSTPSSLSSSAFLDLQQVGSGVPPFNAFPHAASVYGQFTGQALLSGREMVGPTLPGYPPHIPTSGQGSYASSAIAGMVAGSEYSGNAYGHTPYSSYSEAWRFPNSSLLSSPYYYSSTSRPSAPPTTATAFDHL
Mitogen-activated protein kinase 10, sequence (P53779 whole entry): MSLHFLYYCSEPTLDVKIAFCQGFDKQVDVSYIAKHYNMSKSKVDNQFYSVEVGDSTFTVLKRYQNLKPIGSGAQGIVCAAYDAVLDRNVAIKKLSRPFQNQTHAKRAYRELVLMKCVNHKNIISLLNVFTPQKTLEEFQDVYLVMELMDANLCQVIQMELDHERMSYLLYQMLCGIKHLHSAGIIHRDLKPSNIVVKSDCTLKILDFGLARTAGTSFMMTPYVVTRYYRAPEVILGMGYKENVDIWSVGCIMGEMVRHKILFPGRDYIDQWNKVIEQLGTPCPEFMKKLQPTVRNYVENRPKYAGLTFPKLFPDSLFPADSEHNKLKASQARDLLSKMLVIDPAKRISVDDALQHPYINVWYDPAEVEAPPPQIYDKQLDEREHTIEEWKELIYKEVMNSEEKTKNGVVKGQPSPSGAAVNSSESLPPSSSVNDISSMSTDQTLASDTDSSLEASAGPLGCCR
Cytochrome P450 2D6, sequence (P10635 whole entry): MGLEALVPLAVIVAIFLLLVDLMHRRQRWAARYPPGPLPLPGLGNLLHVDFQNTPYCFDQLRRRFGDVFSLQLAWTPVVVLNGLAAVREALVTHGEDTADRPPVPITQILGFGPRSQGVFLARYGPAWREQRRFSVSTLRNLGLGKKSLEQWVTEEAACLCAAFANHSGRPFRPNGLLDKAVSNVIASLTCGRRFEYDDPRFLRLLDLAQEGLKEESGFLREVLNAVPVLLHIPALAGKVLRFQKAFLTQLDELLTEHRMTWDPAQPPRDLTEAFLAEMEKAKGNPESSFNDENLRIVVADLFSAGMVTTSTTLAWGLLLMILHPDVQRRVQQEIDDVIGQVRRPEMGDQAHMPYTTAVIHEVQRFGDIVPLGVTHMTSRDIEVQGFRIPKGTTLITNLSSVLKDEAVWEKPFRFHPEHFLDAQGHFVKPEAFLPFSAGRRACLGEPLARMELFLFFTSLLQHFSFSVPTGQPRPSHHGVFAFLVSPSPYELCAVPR
Cytochrome P450 2C9, sequence (P11712 whole entry): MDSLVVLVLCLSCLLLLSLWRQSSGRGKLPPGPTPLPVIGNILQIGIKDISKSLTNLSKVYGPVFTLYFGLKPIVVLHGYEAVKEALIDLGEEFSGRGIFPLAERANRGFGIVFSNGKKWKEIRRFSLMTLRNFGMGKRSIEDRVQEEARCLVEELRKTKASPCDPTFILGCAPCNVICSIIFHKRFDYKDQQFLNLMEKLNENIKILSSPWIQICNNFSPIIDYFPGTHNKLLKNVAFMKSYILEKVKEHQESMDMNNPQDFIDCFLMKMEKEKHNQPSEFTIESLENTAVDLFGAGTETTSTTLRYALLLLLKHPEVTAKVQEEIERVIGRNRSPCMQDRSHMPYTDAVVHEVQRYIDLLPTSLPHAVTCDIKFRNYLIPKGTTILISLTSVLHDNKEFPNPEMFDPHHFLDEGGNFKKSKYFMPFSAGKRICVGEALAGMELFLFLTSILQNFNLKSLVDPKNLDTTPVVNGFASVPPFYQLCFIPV

With `O=C(CCn1cnc2ccccc2c1=O)Nc1ccc(S(=O)(=O)N2CCCCC2)cc1` the IC50 [1] was 38.4 µM (not active).
With `C[C@@H]1CN([C@H](C)CO)C(=O)c2cc(NS(=O)(=O)c3ccc(Cl)cc3)ccc2O[C@@H](C)CCCCO[C@@H]1CN(C)CC1CCCCC1` the AC50 [2] was 44.4 µM (active), the AC50 (Paired box protein Pax-8) was 9.23 µM (active) and the AC50 [3] was 18.8 µM (active). For the same molecule, the AC50 [4] was 9.37 µM (active).
In the case of `O=C(Nc1ccccc1F)N1CCCCN2[C@@H](CO)[C@H](c3ccc(C#Cc4cccnc4)cc3)[C@@H]2C1`, the AC50 [5] was 1.1 µM (active), the AC50 [6] was 0.949 µM (active) and the AC50 [7] was 0.824 µM (active). The AC50 [8] was 0.652 µM (active).
With `CCN1CCCC1CNC(=O)C(=O)Nc1ccccc1OC` (stereo unspecified) the AC50 (Cytochrome P450 2D6) was “inconclusive” and the AC50 (Cytochrome P450 2C9) was “inconclusive”.
With `Cc1cccn2cc(COc3ccc(-c4ccccc4)cc3)nc12` the IC50 (Vero [9]) was 11.6 µM (active) and the CC50 (Vero [10]) was > 25 µM (active).
For `CCC(=O)Nc1ccc(C(=O)NNC(=O)c2cc([N+](=O)[O-])cc([N+](=O)[O-])c2)cc1`, the CC50 [11] was > 40 µM (active) and the IC50 (cells [12]) was 10.3 µM (active).
For `CCOc1cc(CNCCCN2CCOCC2)ccc1OCC(=O)Nc1cccc2ccccc12`, the IC50 (Vero [9]) was 18.6 µM (active) and the CC50 (Vero [10]) was > 25 µM (active).
With `CCOC(=O)CCCc1sc(N)nc1-c1[nH]c(O)nc1C` the IC50 [1] was > 93.1 µM (not active).
In the case of `Clc1ccc(-n2nnnc2CN2CCOCC2)cc1`, the AC50 (Cytochrome P450 2D6) was “inconclusive” and the AC50 (Cytochrome P450 2C9) was “inconclusive”.
With `COc1ccc(N2C(=O)NC(=O)/C(=C\c3ccc([N+](=O)[O-])s3)C2=O)cc1` the IC50 [13] was 10.3 µM (active), the AC50 [14] was > 20 µM (inactive) and the IC50 [15] was 18.2 µM (active). For the same molecule, the IC50 (Genome polyprotein) was 39.1 µM (active), the EC50 [16] was 3.77 µM (active) and the EC50 [17] was > 60 µM (inconclusive).
In the case of `CCOC(=O)c1cnc(-c2ccccc2)nc1Oc1ccc(Cl)cc1`, the AC50 (Cytochrome P450 2D6) was “inconclusive”.
With `CCN(CC)CCCNC(=O)CC1Sc2ccccc2NC1=O` (stereo unspecified) the IC50 [18] was > 64 µM (inactive).
With `O=C(O)[C@H]1C[C@H](C(=O)O)N1` the AC50 (Cytochrome P450 2D6) was “inconclusive”.
With `O=[N+]([O-])c1cccc(/C=N/Nc2nc(NCc3ccccc3)nc(N3CCOCC3)n2)c1O` the EC50 [19] was 11.4 µM (active), the IC50 (Vero [9]) was 12.2 µM (active) and the EC50 (cells [20]) was > 350 µM (not active). The EC50 [21] was 15 µM (active), the IC50 (Nonstructural protein 1) was 6.2 µM (active) and the EC50 [22] was 14.1 µM (active). For the same molecule, the EC50 (cells [23]) was 13.4 µM (active) and the CC50 (Vero [10]) was 14.7 µM (active).
For `COc1cc(NC(=O)c2ccccc2)ccc1NC(=O)c1cc2ccccc2o1`, the IC50 [13] was > 50 µM (inactive) and the IC50 [15] was > 56.8 µM (not active).
With `CC(C)CN(CC(C)C)c1ccc(C=C2C(=O)NC(=S)NC2=O)cc1[N+](=O)[O-]` the EC50 [24] was 1.88 µM (active), the IC50 (Genome polyprotein) was 15.9 µM (active) and the IC50 [18] was 42.1 µM (inactive).
With `C[C@H]1CCCCO[C@H](CN(C)C(=O)Nc2ccc(C(F)(F)F)cc2)[C@@H](C)CN([C@@H](C)CO)C(=O)c2cc(NS(=O)(=O)c3ccccc3)ccc2O1` the AC50 [2] was 40.6 µM (active), the AC50 (Paired box protein Pax-8) was 6.7 µM (active) and the AC50 [3] was 45.8 µM (active).
For `Cc1ccc(S(=O)(=O)Nc2ccc3c(c2)C(=O)N([C@@H](C)CO)C[C@H](C)[C@@H](CN(C)Cc2ccc(C(F)(F)F)cc2)OCCCC[C@H](C)O3)cc1`, the AC50 [2] was 29.5 µM (active), the AC50 (Paired box protein Pax-8) was 7.48 µM (active) and the AC50 [3] was 46.9 µM (active). The AC50 [4] was 24.1 µM (active).
In the case of `Cc1cc(O)ccc1-c1cnc2ccccc2n1`, the IC50 [1] was 28.1 µM (not active).
For `COc1ccc(CC(=O)Nc2cc(C)ccn2)cc1`, the IC50 [1] was 21.4 µM (not active).
